Data from patent US10385022B2, “3-amino-pyridines as GPBAR1 agonists” (HOFFMANN-LA ROCHE INC., priority 2011, dated 2019).

Molecular target: human GPBAR1 receptor (Homo sapiens (Human), UniProt Q8TDU6)
Assay: functional cAMP assay in CHO-dhfr(minus) cells expressing human GPBAR1 receptors
Type: cell-based
Conditions: CHO-dhfr(minus) cells expressing human GPBAR1, 30 min at 30° C.
Outline: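 Functional cAMP responses in a human GPBAR1-transfected CHO-dhfr- clone, picked using lithocholic acid as agonist, gave the EC50 values. Parallel testing in untransfected CHO cells served as a specificity control.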

Sequence of human GPBAR1 receptor (Q8TDU6 whole entry): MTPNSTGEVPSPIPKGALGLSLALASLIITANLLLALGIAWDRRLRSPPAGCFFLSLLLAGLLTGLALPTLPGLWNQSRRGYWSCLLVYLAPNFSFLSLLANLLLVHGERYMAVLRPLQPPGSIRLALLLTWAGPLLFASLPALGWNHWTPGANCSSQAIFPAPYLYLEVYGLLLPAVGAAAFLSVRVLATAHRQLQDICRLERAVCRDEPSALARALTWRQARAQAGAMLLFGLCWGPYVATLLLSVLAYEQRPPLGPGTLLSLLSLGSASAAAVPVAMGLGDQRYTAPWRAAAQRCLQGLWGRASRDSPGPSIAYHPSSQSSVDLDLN

EC50 [nM] | Compound
33 | COc1cccc(F)c1-c1ccncc1N(CC(N)=O)C(=O)c1cc(C(F)(F)F)nc(C(F)(F)F)c1 [Example 199, N-Carbamoylmethyl-N-[4-(2-fluoro-6-methoxy-phenyl)-pyridin-3-yl]-2,6-bis-trifluoromethyl-isonicotinamide]
1200 | Cc1ccccc1-c1ccncc1N(C(=O)c1cc(C(F)(F)F)cc(C(F)(F)F)c1)C1COC1 [Example 200, N-Oxetan-3-yl-N-(4-o-tolyl-pyridin-3-yl)-3,5-bis-trifluoromethyl-benzamide]
267 | COc1cc(F)ccc1-c1cc(Cl)ncc1N(C)C(=O)c1cc(C(F)(F)F)cc(S(C)(=O)=O)c1 [Example 201, N-[6-Chloro-4-(4-fluoro-2-methoxy-phenyl)-pyridin-3-yl]-3-methanesulfonyl-N-methyl-5-trifluoromethyl-benzamide]
157 | COc1cc(F)ccc1-c1cc(C)ncc1N(C)C(=O)c1cc(C(F)(F)F)cc(S(C)(=O)=O)c1 [Example 202, N-[4-(4-Fluoro-2-methoxy-phenyl)-6-methyl-pyridin-3-yl]-3-methanesulfonyl-N-methyl-5-trifluoromethyl-benzamide]
54 | CCC(=O)CN(C(=O)c1cc(C(F)(F)F)nc(C(F)(F)F)c1)c1cnccc1-c1ccc(F)cc1OC [Example 203, N-[4-(4-Fluoro-2-methoxy-phenyl)-pyridin-3-yl]-N-(2-oxo-butyl)-2,6-bis-trifluoromethyl-isonicotinamide]
619 | CCC(=O)CN(C(=O)c1cc(C(F)(F)F)cc(S(C)(=O)=O)c1)c1cnccc1-c1ccc(F)cc1OC [Example 204, N-[4-(4-Fluoro-2-methoxy-phenyl)-pyridin-3-yl]-3-methanesulfonyl-N-(2-oxo-butyl)-5-trifluoromethyl-benzamide]
17 | COc1cccc(F)c1-c1ccncc1N(C)C(=O)c1cc(C(F)(F)F)cc(S(C)(=O)=O)c1 [Example 205, N-[4-(2-Fluoro-6-methoxy-phenyl)-pyridin-3-yl]-3-methanesulfonyl-N-methyl-5-trifluoromethyl-benzamide]
23 | COc1cc(C(=O)N(C)c2cnccc2-c2ccc(F)cc2OC)cc(C(F)(F)F)n1 [Example 206, N-[4-(4-Fluoro-2-methoxy-phenyl)-pyridin-3-yl]-2-methoxy-N-methyl-6-trifluoromethyl-isonicotinamide]
318 | COc1cc(F)ccc1-c1ccncc1N(CC1(C)COC1)C(=O)c1cc(C(F)(F)F)nc(C(F)(F)F)c1 [Example 207, N-[4-(4-Fluoro-2-methoxy-phenyl)-pyridin-3-yl]-N-(3-methyl-oxctan-3-ylmethyl)-2,6-bis-trifluoromethyl-isonicotinamide]
2960 | Cc1nn(C)c(C)c1-c1ccncc1N(C)C(=O)c1cc(C(F)(F)F)cc(C(F)(F)F)c1 [Example 208, N-Methyl-3,5-bis-trifluoromethyl-N-[4-(1,3,5-trimethyl-1H-pyrazol-4-yl)-pyridin-3-yl]-benzamide]
1470 | Cc1nc(C)c(-c2ccncc2N(C)C(=O)c2cc(C(F)(F)F)cc(C(F)(F)F)c2)s1 [Example 209, N-[4-(2,4-Dimethyl-thiazol-5-yl)-pyridin-3-yl]-N-methyl-3,5-bis-trifluoromethyl-benzamide]
959 | Cc1cn[nH]c1-c1ccncc1N(C)C(=O)c1cc(C(F)(F)F)cc(C(F)(F)F)c1 [Example 211, N-Methyl-N-[4-(4-methyl-2H-pyrazol-3-yl)-pyridin-3-yl]-3,5-bis-trifluoromethyl-benzamide]
75 | COc1cc(F)ccc1-c1ccnc(Cl)c1N(C)C(=O)c1cc(C(F)(F)F)cc(S(C)(=O)=O)c1 [Example 212, N-[2-Chloro-4-(4-fluoro-2-methoxy-phenyl)-pyridin-3-yl]-3-methanesulfonyl-N-methyl-5-trifluoromethyl-benzamide]
253 | COC(=O)CN(C(=O)c1cc(C(F)(F)F)cc(S(C)(=O)=O)c1)c1cnccc1-c1ccccc1F [Example 213, [[4-(2-Fluoro-phenyl)-pyridin-3-yl]-(3-methanesulfonyl-5-trifluoromethyl-benzoyl)-amino]-acetic acid methyl ester]
265 | CS(=O)(=O)c1cc(C(=O)N(CC(F)(F)F)c2cnccc2-c2ccccc2F)cc(C(F)(F)F)c1 [Example 214, N-[4-(2-Fluoro-phenyl)-pyridin-3-yl]-3-methanesulfonyl-N-(2,2,2-trifluoro-ethyl)-5-trifluoromethyl-benzamide]
216 | CS(=O)(=O)c1cc(C(=O)N(CC(F)F)c2cnccc2-c2ccccc2F)cc(C(F)(F)F)c1 [Example 215, N-(2,2-Difluoro-ethyl)-N-[4-(2-fluoro-phenyl)-pyridin-3-yl]-3-methanesulfonyl-5-trifluoromethyl-benzamide]
38 | COc1cc(F)ccc1-c1ccncc1N(C)C(=O)c1cc(SCCO)cc(C(F)(F)F)c1 [Example 216, N-[4-(4-Fluoro-2-methoxy-phenyl)-pyridin-3-yl]-3-(2-hydroxy-ethylsulfanyl)-N-methyl-5-trifluoromethyl-benzamide]

EC50 [nM] | Compound
31 | COCCS(=O)(=O)c1cc(C(=O)N(C)c2cnccc2-c2ccc(F)cc2OC)cc(C(F)(F)F)c1 [Example 217, N-[4-(4-Fluoro-2-methoxy-phenyl)-pyridin-3-yl]-3-(2-methoxy-ethanesulfonyl)-N-methyl-5-trifluoromethyl-benzamide]
73 | COc1cc(F)ccc1-c1ccncc1N(C)C(=O)c1cc(C(F)(F)F)cc(S(=O)(=O)CCO)c1 [Example 218, N-[4-(4-Fluoro-2-methoxy-phenyl)-pyridin-3-yl]-3-(2-hydroxy-ethanesulfonyl)-N-methyl-5-trifluoromethyl-benzamide]
3030 | CS(=O)(=O)c1cc(C(=O)N(CC(N)=O)c2cnccc2-c2ccccc2F)cc(C(F)(F)F)c1 [Example 219, N-Carbamoylmethyl-N-[4-(2-fluoro-phenyl)-pyridin-3-yl]-3-methanesulfonyl-5-trifluoromethyl-benzamide]
1980 | CCc1cc(-c2ccccc2C)c(N(C)C(=O)c2cc(C(F)(F)F)cc(C(F)(F)F)c2)cn1 [Example 220, N-(6-Ethyl-4-o-tolyl-pyridin-3-yl)-N-methyl-3,5-bis-trifluoromethyl-benzamide]
59 | COc1cc(F)ccc1-c1ccncc1N(C)C(=O)c1cc(C(F)(F)F)nc(S(C)(=O)=O)c1 [Example 221, N-[4-(4-Fluoro-2-methoxy-phenyl)-pyridin-3-yl]-2-methanesulfonyl-N-methyl-6-trifluoro-methyl-isonicotinamide]
183 | CN(C(=O)c1cc(C(F)(F)F)cc(C(F)(F)F)c1)c1cnccc1-c1ccccc1N [Example 222, N-[4-(2-Amino-phenyl)-pyridin-3-yl]-N-methyl-3,5-bis-trifluoromethyl-benzamide]
46 | COc1cccc(F)c1-c1ccncc1N(CC(F)(F)F)C(=O)c1cc(C(F)(F)F)cc(S(C)(=O)=O)c1 [Example 223, N-[4-(2-Fluoro-6-methoxy-phenyl)-pyridin-3-yl]-3-methanesulfonyl-N-(2,2,2-trifluoro-ethyl)-5-trifluoromethyl-benzamide]
46 | COC(=O)CCS(=O)(=O)c1cc(C(=O)N(C)c2cnccc2-c2ccc(F)cc2OC)cc(C(F)(F)F)c1 [Example 224, 3-(3-{[4-(4-Fluoro-2-methoxy-phenyl)-pyridin-3-yl]-methyl-carbamoyl}-5-trifluoromethyl-benzenesulfonyl)-propionic acid methyl ester]
241 | COC(=O)CCSc1cc(C(=O)N(C)c2cnccc2-c2ccc(F)cc2OC)cc(C(F)(F)F)c1 [Example 225, 3-(3-{[4-(4-Fluoro-2-methoxy-phenyl)-pyridin-3-yl]-methyl-carbamoyl}-5-trifluoromethyl-phenylsulfanyl)-propionic acid methyl ester]
958 | COc1cc(F)ccc1-c1ccncc1N(C)C(=O)c1cc(O)cc(C(F)(F)F)c1 [Example 226, N-[4-(4-Fluoro-2-methoxy-phenyl)-pyridin-3-yl]-3-hydroxy-N-methyl-5-trifluoromethyl-benzamide]
93 | COc1cc(F)ccc1-c1ccncc1N(C)C(=O)c1cc(Cl)cc(OC(F)(F)F)c1 [Example 227, 3-Chloro-N-[4-(4-fluoro-2-methoxy-phenyl)-pyridin-3-yl]-N-methyl-5-trifluoromethoxy-benzamide]
57 | COc1cc(F)ccc1-c1ccncc1N(CC#N)C(=O)c1cc(C(F)(F)F)cc(S(C)(=O)=O)c1 [Example 228, N-Cyanomethyl-N-[4-(4-fluoro-2-methoxy-phenyl)-pyridin-3-yl]-3-methanesulfonyl-5-trifluoromethyl-benzamide]
27 | COCCN(C(=O)c1cc(C(F)(F)F)cc(S(C)(=O)=O)c1)c1cnccc1-c1c(F)cccc1OC [Example 229, N-[4-(2-Fluoro-6-methoxy-phenyl)-pyridin-3-yl]-3-methanesulfonyl-N-(2-methoxy-ethyl)-5-trifluoromethyl-benzamide]
73 | COc1cc(F)ccc1-c1ccnc(C)c1N(C)C(=O)c1cc(C(F)(F)F)cc(S(C)(=O)=O)c1 [Example 230, N-[4-(4-Fluoro-2-methoxy-phenyl)-2-methyl-pyridin-3-yl]-3-methanesulfonyl-N-methyl-5-trifluoromethyl-benzamide]
3500 | COc1cc(F)ccc1-c1ccncc1N(Cc1cc(C)on1)C(=O)c1cc(C(F)(F)F)cc(S(C)(=O)=O)c1 [Example 231, N-[4-(4-Fluoro-2-methoxy-phenyl)-pyridin-3-yl]-3-methanesulfonyl-N-(5-methyl-isoxazol-3-ylmethyl)-5-trifluoromethyl-benzamide]
405 | COc1cc(F)ccc1-c1ccncc1N(C)C(=O)c1cc(SCCNC(=O)OC(C)(C)C)cc(C(F)(F)F)c1 [Example 234, [2-(3-{[4-(4-Fluoro-2-methoxy-phenyl)-pyridin-3-yl]-methyl-carbamoyl}-5-trifluoromethyl-phenylsulfanyl)-ethyl]-carbamic acid tert-butyl ester]
